Experiment: 48 hr solubility of benzotriazole UV absorbers in solubilizing monomers
Settings: not given
Description: The solubility of the benzotriazole 2-(2-hydroxy-3-alpha-cumyl-5-t-octylphenyl)-5-trifluoromethylbenzotriazole (CGL-139, experimentally available from Ciba Specialty Chemicals) in various solubilizing monomers was determined. Mixtures were made up using 5% increments of the benzotriazole. The benzotriazole and solubilizing monomer to be tested were mixed with gentle heating to 70° C. in a water bath until dissolved, then allowed to stand for 48 hours at room temperature. After 48 hours, each mixture was inspected for benzotriazole precipitation. Solubility was determined to within 5% by recording the highest concentration tested for which there was no precipitation and the lowest concentration for which precipitation occurred. […] Where reported in the literature, the Tg of a polymer made entirely of the tested solubilizing monomer is also given.
Using the method of Example 1, the solubility of a variety of benzotriazoles in isobornyl acrylate was determined. The formula for each of the tested benzotriazoles is set out above. These benzotriazoles can also be represented using the general structure 2-(2-hydroxy-3-R2-5-R3-phenyl)-5-R1-benzotriazole. For CGL-139, R1=trifluoromethyl, R2=alpha-cumyl, and R3=t-octyl. For TINUVIN 928, R1=H, R2=alpha-cumyl, and R3=t-octyl. For Tinuvin 328, R1=H, R2=t-amyl, and R3=t-amyl. For TINUVIN 327, R1=chloro, R2=t-butyl, and R3=t-butyl. For TINUVIN 326, R1=chloro, R2=t-butyl, and R3=methyl. For both TINUVIN 234 and TINUVIN 900, R1=H, R2=alpha-cumyl, and R3=alpha-cumyl.

For `CC(C)(C)CC(C)(C)c1cc(-n2nc3ccc(C(F)(F)F)cc3n2)c(O)c(C(C)(C)c2ccccc2)c1` [CGL-139, 2-(2-hydroxy-3-alpha-cumyl-5-t-octylphenyl)-5-trifluoromethylbenzotriazole], which “Benzotriazole 48 hr Solubility, wt. %” value is on record?
Its value is 25-30% wt. %.

For `Cc1cc(-n2nc3ccc(Cl)cc3n2)c(O)c(C(C)(C)C)c1` [TINUVIN 326, 5-chloro-2-(2-hydroxy-3-tert-butyl-5-methylphenyl)-2H-benzotriazole], which “Benzotriazole 48 hr Solubility, wt. %” value is on record?
The value was 5-10% wt. %.

For `CC(C)(C)CC(C)(C)c1cc(-n2nc3ccccc3n2)c(O)c(C(C)(C)c2ccccc2)c1` [TINUVIN 928, 2-(2-hydroxy-3-alpha-cumyl-5-tert-octylphenyl)-2H-benzotriazole], which “Benzotriazole 48 hr Solubility, wt. %” value is on record?
The value was 30-35% wt. %.

Same assay, conditions: in isobornyl acrylate; method of Example 1, 48 hours at room temperature

For `CC(C)(C)c1cc(-n2nc3ccc(Cl)cc3n2)c(O)c(C(C)(C)C)c1` [TINUVIN 327, 5-chloro-2-(2-hydroxy-3,5-di-tert-butylphenyl)-2H-benzotriazole], which “Benzotriazole 48 hr Solubility, wt. %” value is on record?
The value was 5-10% wt. %.

Which “Benzotriazole 48 hr Solubility, wt. %” value does the source give for `CCC(C)(C)c1cc(-n2nc3ccccc3n2)c(O)c(C(C)(C)CC)c1` [TINUVIN 328, 2-(2-hydroxy-3,5-di-tert-amylphenyl)-2H-benzotriazole] here?
Its value is 20-25% wt. %.

With `CC(C)(c1ccccc1)c1cc(-n2nc3ccccc3n2)c(O)c(C(C)(C)c2ccccc2)c1` [TINUVIN 900, 2-(2-hydroxy-3,5-di-alpha-cumylphenyl)-2H-benzotriazole] as the compound, how does the “Benzotriazole 48 hr Solubility, wt. %” value read?
The value was 0-5% wt. %.

Source: patent publication US7507776B2, “Outdoor weatherable photopolymerizable coatings” (3M Innovative Properties Company, priority 2003, dated 2009)
